Our source for the IC50 and cell survival rate values is patent US20210060016A1, “ANTICANCER AGENT” (JAPANESE FOUNDATION FOR CANCER RESEARCH, priority 2017, published 2021).

Some results are limits rather than exact numbers.

One experiment addresses T1, tankyrase 1 (Homo sapiens, UniProt O95271).
T1 construct: tankyrase 1 (1,024-1, 327aa, SAM+PARP); made in house; host or cells: cell-free protein expression system
As to the kind of experiment: Tankyrase inhibitory activity test (ELISA, auto-poly(ADP-ribosyl)ation), TNKS1. Format: biochemical. The conditions noted are these: Flag-tagged tankyrase 1 (SAM+PARP), read-out: TNKS1 (inhibitory activity against tankyrase 1), IC50 rating. On the procedure: (§1) The enzymatic activity of tankyrase 1 and the enzymatic activity of tankyrase 2 were measured by the ELISA method based on assessment of auto-poly(ADP-ribosyl)ation to evaluate the tankyrase inhibitory activity of the compound prepared in each of Compound Examples (test compound) (inhibitory activity against tankyrase 1 (TNKS1) and inhibitory activity against tankyrase 2 (TNKS2)). First, Flag-tagged tankyrase 1 (1,024-1, 327aa, SAM+PARP) and tankyrase 2 (613-1, 116aa, ANK5+SAM+PARP) were synthesized with a cell-free protein expression system, and diluted with a Tris buffer solution (50 mM Tris-HCl (pH 8.0), 150 mM NaCl, 10% glycerol). 50 μL of the diluted tankyrase 1 or tankyrase 2 was added to a plate with an anti-FLAG M2 monoclonal antibody immobilized thereon (Anti-FLAG High-Sensitivity M2-Coated Plate) (Sigma-Aldrich), and the mixture was left to stand overnight at 4° C. Thereafter, the plate was washed four times with a PBS (PBST) buffer containing 0.1% TritonX-100.
(§2) Subsequently, the test compound diluted with an assay buffer (50 mM Tris-HCl (pH 8.0), 4 mM MgCl2, 0.2 mM DTT) (DMSO was used as a control) was added to each well of the plate, and the mixture was left to stand at room temperature for 10 minutes. Thereafter, a biotin-labeled NAD solution (225 μM NAD, 25 μM 6-Biotin-17-NAD (Travigen, Inc.)) was added and mixed as a donor substrate, and the mixture was reacted at 30° C. for 45 minutes. To blank wells was added distilled water instead of the biotin-labeled NAD solution. After the reaction, the plate was washed with a PBST buffer four times. Thereafter, HRP (horseradish peroxidase)-labeled streptavidin (Travigen, Inc.) was diluted with a PBS buffer by 1,000 times, and added to each well, and the mixture was reacted at room temperature for 20 minutes. The plate was washed with a PBST buffer four times, a chemiluminescent substrate solution TACS-Sapphire (Travigen, Inc.) was then added to each well, the mixture was reacted at room temperature for 20 minutes, and thechemiluminescence intensity was measured using a chemiluminescence measuring apparatus.
(§3) The residual enzymatic activity in the presence of the test compound was determined from the following expression. On the basis of the residual enzymatic activity at each of multiple concentrations of the test compound, the enzyme inhibitory activity was calculated in terms of a 50%-inhibition concentration (IC50 value) using data analysis software Origin (LightStone Corp.). Residual activity (%)={(chemiluminescence intensity with test compound added)−(chemiluminescence intensity of blank)}/{(chemiluminescence intensity of control)−(chemiluminescence intensity of blank))
On the technique in general: In an ELISA, binding on a coated surface is turned into a signal by an enzyme label.

Another experiment has as its target T2, tankyrase 2 (Homo sapiens, UniProt Q9H2K2).
T2 construct: tankyrase 2 (613-1, 116aa, ANK5+SAM+PARP); made in house; host or cells: cell-free protein expression system
As to the kind of experiment: Tankyrase inhibitory activity test (ELISA, auto-poly(ADP-ribosyl)ation), TNKS2. Format: biochemical. The settings on record: Flag-tagged tankyrase 2 (ANK5+SAM+PARP), read-out: TNKS2 (inhibitory activity against tankyrase 2), IC50 rating. On the procedure:
as §1, §2, §3

Experiment [1] concerns human colorectal cancer cell line COLO-320DM. As to the kind of experiment: Cell proliferation inhibitory activity test (Celltiter-Glo). Format: cell-based. The conditions noted are these: 96 hours, read-out: COLO-320DM (cell proliferation inhibitory activity), G150 rating. How it is done:
The cell proliferation inhibitory activity of the compound, which had been prepared in each of Compound Examples, against the human colorectal cancer cell line COLO-320DM was evaluated by Celltiter-Glo Luminescent Cell Viability Assay (Promega Corporation; G7573). COLO-320DM cells were cultured in RPMI-1640 medium containing 2 mM glutamine (Wako Pure Chemical Industries, Ltd; 189-02025) supplemented with 10% fetal bovine serum. The cultured cells were washed with PBS, and then dissociated with trypsin/EDTA, and a cell solution with 3×10^4 cells/mL was prepared.
Subsequently, the cell solution was seeded in a 96-well microplate (Thermo/Nunc Company; 136101) in an amount of 70 μL per well, and cultured overnight under the condition of 37° C. and 5% COz. The next day, a test compound solution obtained by diluting the test compound (DMSO solution) with a cell culture medium (final concentration of DMSO was 1%) was added in an amount of 10 μL per well, and the mixture was reacted under the condition of 37° C. and 5% CO2 for 96 hours (a 1% DMSO solution was used as a control). Thereafter, a Celltiter-Glo Luminescent Cell Viability Assay reagent was added (Promega Corporation; G7573) in an amount of 80 μL per well, the mixture was stirred with a shaker for 2 minutes while light was blocked with an aluminum foil, and the mixture was incubated at room temperature for 10 minutes.
Thereafter, a luminescence signal was measured with a luminometer (Biotech Company; Synergy). The ratio of cell proliferation in each compound addition group to cell proliferation in a control group containing no test compound solution, where cell proliferation in the control group is 100%, was determined, and the value of a compound concentration necessary for suppressing the amount of residual cells to 50% of that in the control (G150) was calculated as the cell proliferation inhibitory activity. For the COLO-320DM (cell proliferation inhibitory activity against COLO-320DM) of each test compound as measured through the above-mentioned method, a test compound having a G150 value of less than 1 μM was rated “A”, a test compound having a G150 value of 1 μM or more and less than 10 μM was rated “B”, a test compound having a G150 value of 10 μM or more was rated “C”, and an unevaluated test compound was designated as “NT”.

Experiment [2] has the same test system. As to the kind of experiment: MTT assay, combination of test compound and other anticancer agents. The class given is cell-based. On the procedure:
The ratio of residual cells in treatment of the human colorectal cancer cell line COLO-320DM with a combination of the compound prepared in each Compound Example (test compound or tankyrase inhibitory compound) and each of the anticancer agents was measured to evaluate the cell killing effect of the combination on the human colorectal cancer cell line COLO-320DM. The combinations of test compounds and anticancer agents are as follows.
(Example 8): combination of the compound prepared in Compound Example 5 and temozolomide, melphalan, gemcitabine, cytarabine (Ara-C), fluorouracil (5-FU), pemetrexed, mercaptopurine, methotrexate, irinotecan (SN-38), etoposide (VP-16), actinomycin D, daunorubicin, doxorubicin, bleomycin, mitoxantrone, oxaliplatin, carboplatin or cisplatin (Example 9): combination of the compound prepared in Compound Example 110 (G007-LK) and irinotecan (SN-38) (Example 10): combination of the compound prepared in Compound Example 11 and irinotecan (SN-38) (Example 11): combination of the compound prepared in Compound Example 19 and irinotecan (SN-38) (Example 12): combination of the compound prepared in Compound Example 101 and irinotecan (SN-38) (Example 13): combination of the compound prepared in Compound Example 1 and irinotecan (SN-38) (Example 14): combination of the compound prepared in Compound Example 113 and irinotecan (SN-38)
Commercially available compounds were used for temozolomide (manufactured by Sigma-Aldric), melphalan (manufactured by Signa-Aldrich), gemcitabine (Gemcitabine hydrochloride; manufactured by Sigma-Aldric), cytarabine (Cytosine β-D-arabinofuranoside (Ara-C); manufactured by Sigma-Aldrich), fluorouracil (5-Fluorouracil (5-FU); manufactured by Sigma-Aldrich), pemetrexed (Pemetrexed disodium heptahydrate; manufactured by Sigma-Aldrich), mercaptopurine (6-Mercaptopurine monohydrate; manufactured by Sigma-Aldrich), methotrexate (Methotrexate hydrate; manufactured by Sigma-Aldrich), irinotecan (7-Ethyl-10-hydroxycamptothecin (SN-38); manufactured by Sigma-Aldrich), etoposide (Etoposide (VP-16); manufactured by Enzo Life Sciences, Inc.), actinomycin D (manufactured by nacalai tesque), daunorubicin (Daunorubicin hydrochloride; Calbiochem), doxorubicin (Doxorubicin hydrochloride; manufactured by Sigma-Aldrich), bleomycin (Bleomycin sulfate; manufactured by Enzo Life Sciences, Inc.), mitoxantrone (Mitoxantrone dihydrochloride; manufactured by Sigma-Aldrich), oxaliplatin (manufactured by Sigma-Aldrich), carboplatin (manufactured by Sigma-Aldrich) and cisplatin (manufactured by Enzo Life Sciences, Inc.).
First, the human colorectal cancer cell line COLO-320DM was suspended in RPMI1640 medium (hereinafter, medium) containing inactivated 10% fetal bovine serum, and the cells were seeded in a 96-well microplate at 350 cells (75 μL) per well. The cells were subjected to stationary culture overnight in a CO2 incubator at 37° C. Thereafter, in Example 8, a medium (25 μL) containing a combination of the compound prepared in Compound Example 5 and each of the anticancer agents was added in triplicate in such a manner that the final concentrations of the test compound (compound prepared in Compound Example 5) were 0 nM or 30 nM and that the final concentrations of each anticancer agent were those shown in Table 14. In Examples 9 to 14, a medium (25 μL) containing a combination of the compound prepared in each of Compound Examples and each of the anticancer agents was added in triplicate in such a manner that the final concentrations of the test compound were 0 nM or those shown in FIGS. 9 to 14. As a control, 25 μL of a medium containing only dimethyl sulfoxide (DMSO) which is a solvent was added. […]

Setting [3] is: Examples 9 to 14, COLO-320DM: test compound added at the concentration shown in FIGS. 9 to 14 to irinotecan (SN-38), survival with only irinotecan = 100%.

T2 sequence (Q9H2K2 613-1166): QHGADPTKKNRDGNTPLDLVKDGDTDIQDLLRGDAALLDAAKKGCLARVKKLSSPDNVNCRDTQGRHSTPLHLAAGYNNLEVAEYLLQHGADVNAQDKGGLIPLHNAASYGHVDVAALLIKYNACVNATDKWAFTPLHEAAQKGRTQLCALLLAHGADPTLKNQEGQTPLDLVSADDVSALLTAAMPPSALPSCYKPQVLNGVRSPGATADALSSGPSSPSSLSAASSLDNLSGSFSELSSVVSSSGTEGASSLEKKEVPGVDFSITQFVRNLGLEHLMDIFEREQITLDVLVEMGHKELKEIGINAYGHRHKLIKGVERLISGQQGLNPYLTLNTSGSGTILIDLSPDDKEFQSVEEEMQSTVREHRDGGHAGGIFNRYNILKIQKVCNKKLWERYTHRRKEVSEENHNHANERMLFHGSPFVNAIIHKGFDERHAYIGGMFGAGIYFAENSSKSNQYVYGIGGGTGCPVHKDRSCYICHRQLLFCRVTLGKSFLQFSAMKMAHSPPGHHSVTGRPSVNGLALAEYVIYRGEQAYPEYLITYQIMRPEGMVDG
T1 sequence (O95271 1024-1327): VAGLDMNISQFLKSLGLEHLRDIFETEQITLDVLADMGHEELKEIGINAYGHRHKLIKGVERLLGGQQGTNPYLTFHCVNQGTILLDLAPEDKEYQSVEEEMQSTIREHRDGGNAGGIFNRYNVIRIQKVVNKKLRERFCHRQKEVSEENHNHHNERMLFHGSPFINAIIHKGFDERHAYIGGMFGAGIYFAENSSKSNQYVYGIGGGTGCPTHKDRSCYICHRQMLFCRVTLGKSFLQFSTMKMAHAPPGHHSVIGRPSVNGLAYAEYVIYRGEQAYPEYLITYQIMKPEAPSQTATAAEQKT

On to `CN1CCCc2c1nc(N1CCC3(CC1)C(=O)N(C)c1cc(C4CCC(O)CC4)cc(F)c13)[nH]c2=O` (stereo not drawn) [Example 22], for which the IC50 is under 20 nM at tankyrase 1, 20 to 200 nM at tankyrase 2 and under 1000 nM in experiment [1].

Turning to `C[C@@H]1CN(c2cc(F)c3c(c2)N(C)C(=O)C32CCN(c3nc4c(c(=O)[nH]3)CCCN4)CC2)C[C@H](C)O1` [Example 23], the figures for the IC50 (at tankyrase 1; at tankyrase 2; in experiment [1]) were under 20 nM, under 20 nM and under 1000 nM, respectively.

On to `C[C@@H]1CN(c2cc(F)c3c(c2)N(CC(F)(F)F)C(=O)C32CCN(c3nc4c(c(=O)[nH]3)CCCN4)CC2)C[C@H](C)O1` [Example 24], for which the figures for the IC50 (on tankyrase 1; on tankyrase 2; in experiment [1]) were under 20 nM, under 20 nM and under 1000 nM, respectively.

In the case of `CN1CCN(c2cc(F)c3c(c2)N(C)C(=O)C32CCN(c3nc4c(c(=O)[nH]3)CCCN4C)CC2)CC1` [compound 5, 4-Fluoro-1-methyl-1′-(8-methyl-4-oxo-3,4,5,6,7,8-hexahydropyrido [2,3-d]pyrimidin-2-yl)-6-(4-methylpiperazin-1-yl)spiro [indolin-3,4′-piperidin]-2-one], in experiment [2] (Example 8, COLO-320DM: test compound further added at 30 nM to each anticancer agent (temozolomide ... cisplatin), survival with only the anticancer agent = 100%), the cell survival rate result is “about 50%”.

With `CN1CCCc2c1nc(N1CCC3(CC1)C(=O)N(C)c1cc(N4CCC(C(=O)O)CC4)cc(F)c13)[nH]c2=O` [compound 11, 1-[4-Fluoro-1-methyl-1′-(8-methyl-4-oxo-3,4,5,6,7,8-hexahydropyrido [2,3-d]pyrimidin-2-yl)-2-oxospiro[indolin-3,4′-piperidin]-6-yl]piperidin-4-carboxylic acid], the cell survival rate result in experiment [2] (setting [3]) is on record as “about 50%”.

On to `C[C@@H]1CN(c2cc(F)c3c(c2)N(C)C(=O)C32CCN(c3nc4c(c(=O)[nH]3)CCCN4C)CC2)C[C@H](C)O1` [compound 19], for which, in experiment [2] (setting [3]), the cell survival rate entry is “about 50%”.
